Where two headings read alike, the source gives them in different places.

The text below walks through data of patent publication US20260169011A1, “METHODS AND COMPOSITIONS FOR PROVIDING CUSTOMIZED NUTRITIONAL SUPPLEMENTS” (Vibrant Holdings LLC, priority 2023, published 2026).

A short description of series [1]: NutriPro test: serum, RBC and WBC nutrient values before and after ATB / customized blend. The settings on record: for Actual Nutrient Value (ANV): before customized blend; for concentration at 3 months: read-out: Follow-up Nutrient Level; for Pre-test biomarker level: before ATB. It counts as in vivo, human. From the text: The method for providing a nutritional supplement for a subject as disclosed herein is based on a comprehensive panel that assesses intracellular and extracellular levels of at least or up to 41 nutrients. […] Blood analysis using the method disclosed herein tests for nutrient levels in serum, red blood cells (RBCs), and white blood cells (WBCs). Additional genetic testing can assess patients' predispositions toward nutrient deficiencies. Based on the blood and genetic analysis results, a subsequent supplementation diet comprising supplements and food sources can be designed and implemented. The subject can be a human subject.
In some embodiments, the detection method is mass spectrometry.
The ‘NutriPro’ test is used to assess serum (extracellular), RBC, and WBC (intracellular) nutrient values along with genetic testing for any predispositions with could be affecting nutrient values in the body. If required, additional tests such as the gut zoomer, cardiovascular health, thyroid test, kidney function test, liver function test, etc, are carried out. FIG. 1 provides a schematic diagram of the process of the NutriPro test from the individual subject to the creation of customized nutritional blends.
The ATB is given to the individual for nutritional supplementation, and blood testing for nutrients in serum, RBC, and WBC is carried out after 3 or 6 months.
The assessed change is called the VAF.
After testing, the individual takes the ATB or the customized blend for the amount of time indicated.

Series [2] in a line: Vibrant Absorption Factor (VAF): difference of post- and pre-supplementation nutrient values divided by ATB dosage.
From the text: Improvement in nutrition can be determined by comparing the nutrient values in serum, RBC, and WBCs post-nutritional supplementation to the nutrient values in serum, RBC, and WBCs pre-nutritional supplementation. Based on the improvement, the change in the nutrient levels can be attributed to the per milligram dosage of the supplemented nutrients. The assessed nutritional change is the “Vibrant Absorption factor (VAF (see Equation (1) below). The VAF can be used to determine the subject's utilization of the supplemented nutrients, as determined by the difference in extracellular and intracellular nutrient values before and after supplementation. Based on the subject's utility or absorption of the nutrients, the dosage amount of the nutrient needed to be supplemented or increased to effect change of the subject's nutrient values into the optimum nutrient zone can be assessed. In various embodiments, the VAF is determined by administering a pre-determined formulation, referred to herein as the Absorption Testing Blend.
Next, the ATB is administered to the individual for a predefined period at step 320a, after which nutrient levels and the genetic nutrient profile are re-evaluated, to obtain the post-supplementation biomarker values at step 330.
This includes determining the VAF based on the difference between post- and pre-supplementation biomarker values, which is divided by the ATB dosage.
The assessed change is called the VAF. The VAF is used to understand how the individual's body is utilizing these nutrients, depending on the difference in extracellular and intracellular nutrient values before and after supplementation. Based on the body's utility or absorption of the nutrients, the amount of nutrients needed to be supplemented to alter the individual's nutrient values into the optimum nutrient zone is understood. The VAF calculations help in determining the appropriate dosages of nutrients required in the ‘customized blend.’
The conditions of series [3]: cited from earlier work.
[4] abbreviates: human, in vivo, Level: Questionnaire, person, after customized blend.
Where [5] appears, read: person one, level: Questionnaire.
Setting [6] is: person one, serum, after customized blend.
[7] abbreviates: person three, serum, after customized blend.
[8] abbreviates: person two, serum, after customized blend.

Turning to `N=C(N)NCCC[C@H](N)C(=O)O` [Arginine], the “Actual Nutrient Value (ANV)” value in series [1] (Level: Questionnaire, person) is listed as 84 nmol/mL. Besides, the concentration at 3 months in series [1] (setting [4]) amounted to 89.5 µM. Moreover, in series [1] (male, human, in vivo), the “Follow-up Biomarker level” value turned out to be 234 nmol/mL and the Post-test biomarker level is on record as 162 nmol/mL. The same molecule returned a Pre-test biomarker level in series [1] (setting [5]) of 135 nmol/mL. Besides, in series [2] (setting [5]), the VAF came to 2.7.
Turning to `[44Ca]` [Calcium, Ca 44], in series [3] (upper tolerable limit), the UTL was 2,500 mg/day.
`C[N+](C)(C)CC(O)CC(=O)[O-]` (stereo not shown) [Carnitine] had a Post-test biomarker level in series [1] (person one, serum, after ATB) of 14.9 nmol/mL. Also, the “Follow-up Biomarker level” value in series [1] (setting [6]) was 42.5 nmol/mL. The same molecule gave a Pre-test biomarker level in series [1] (person one, serum) of 9.5 nmol/mL. In addition, the “Follow-up Nutrient Level” value in series [1] (person three, level: Questionnaire, after customized blend) stood at 43.2 nmol/mL. For the same molecule, in series [1] (person three, level: Questionnaire), the “Actual Nutrient Value (ANV)” value is listed as 24 nmol/mL. Further, the UTL in series [3] (Table 18, person one) was 2000 mg/day; in series [3] (Table 20, person three) it was 2000 mg/day. Moreover, the VAF in series [2] (person one, serum) is on record as 1.08.
In the case of `C[N+](C)(C)CCO` [Choline], the UTL in series [3] (upper tolerable limit) is listed as 3,500 mg/day.
Consider `[Cr]` [Chromium], for which, in series [1] (setting [7]), the “Follow-up Nutrient Level” value was 0.277 ng/mL. In addition, the “Actual Nutrient Value (ANV)” value in series [1] (person three, serum) came to 0.133 ng/mL.
`NC(=O)NCCC[C@H](N)C(=O)O` [Citrulline]: in series [1] (Level: Questionnaire, person), the “Actual Nutrient Value (ANV)” value is reported as 19.2 nmol/mL. Also, the concentration at 3 months in series [1] (setting [4]) came to 24.9 µM. In series [1] (person two, serum, after ATB), the Post-test biomarker level is recorded as 16.7 nmol/mL. Besides, the “Follow-up Biomarker level” value in series [1] (setting [8]) was determined as 43.4 nmol/mL. In series [1] (person two, serum), this molecule had a Pre-test biomarker level of 9.1 nmol/mL. This molecule yielded a VAF in series [2] (person two, serum) of 0.76.
As to `COC1=C(OC)C(=O)C(C/C=C(\C)CC/C=C(\C)CC/C=C(\C)CC/C=C(\C)CC/C=C(\C)CC/C=C(\C)CC/C=C(\C)CC/C=C(\C)CC/C=C(\C)CCC=C(C)C)=C(C)C1=O` [Coenzyme 10], the Post-test biomarker level in series [1] (person one, serum, after ATB) was determined as 0.32 µg/mL; in series [1] (person two, serum, after ATB), 1.2 µg/mL. Further, the “Follow-up Biomarker level” value in series [1] (setting [6]) is 1.8 µg/mL; in series [1] (setting [8]), 1.88 µg/mL. In addition, the Pre-test biomarker level was 0.2 µg/mL in series [1] (person one, serum) and 0.1 µg/mL in series [1] (person two, serum). For the same molecule, the UTL in series [3] (Table 18, person one) is recorded as 1,200 mg/day; in series [3] (Table 19, person two), 1,200 mg/day. The VAF turned out to be 0.024 in series [2] (person one, serum) and 0.22 in series [2] (person two, serum).
On to `COC1=C(OC)C(=O)C(C/C=C(\C)CC/C=C(\C)CC/C=C(\C)CC/C=C(\C)CC/C=C(\C)CC/C=C(\C)CC/C=C(\C)CC/C=C(\C)CC/C=C(\C)CCC=C(C)C)=C(C)C1=O` [Coenzyme Q10], for which the “Follow-up Nutrient Level” value in series [1] (setting [7]) was found to be 1990 ng/mL. Besides, in series [1] (person three, serum), the “Actual Nutrient Value (ANV)” value was 100 ng/mL. Further, in series [3] (Table 20, person three), the UTL is recorded as 1,200 mg/day.
On to `[Cu]` [Copper, Cu 63], for which the UTL in series [3] (upper tolerable limit) is on record as 10 mg/day.
`CC/C=C\C/C=C\C/C=C\C/C=C\C/C=C\CCCCCC(=O)O` [DPA, docosapentaenoic acid]: the “Follow-up Nutrient Level” value in series [1] (person three, cells, after customized blend, unit not given) was 1.2. For the same molecule, the “Actual Nutrient Value (ANV)” value in series [1] (person three, cells, unit not given) was 0.46.
Turning to `C[N+](C)(C)C[C@H](O)CC(=O)[O-]` [Free Carnitine], the UTL in series [3] (upper tolerable limit) is given as 2000 mg/day.
Regarding `[Fe]` [Iron, Fe 56], in series [3] (upper tolerable limit), the UTL is on record as 45 mg/day.
`CC[C@H](C)[C@H](N)C(=O)O` [Isoleucine]: the “Follow-up Nutrient Level” value in series [1] (setting [7]) is recorded as 144 nmol/mL. Further, the “Actual Nutrient Value (ANV)” value in series [1] (person three, serum) was 26.2 nmol/mL. Besides, in series [1] (person two, serum, after ATB), the Post-test biomarker level was found to be 44 nmol/mL. For the same molecule, in series [1] (setting [8]), the “Follow-up Biomarker level” value was found to be 149 nmol/mL. For the same molecule, the Pre-test biomarker level in series [1] (person two, serum) was 14.2 nmol/mL. In addition, the VAF in series [2] (person two, serum) was found to be 8.514.
For the molecule `N=C(N)NCCC[C@H](N)C(=O)O` [L-Arginine], the Post-test biomarker level in series [1] (female, human, in vivo) is 67 nmol/mL. Besides, the “Follow-up Biomarker level” value in series [1] (setting [8]) is recorded as 232 nmol/mL. Moreover, in series [1] (person two, serum), the Pre-test biomarker level worked out at 58 nmol/mL. Moreover, in series [2] (person two, serum), the VAF came to 0.9.
`CC(C)C[C@H](N)C(=O)O` [L-Leucine] displayed a Post-test biomarker level in series [1] (person one, serum, after ATB) of 101 nmol/m. The “Follow-up Biomarker level” value in series [1] (setting [6]) worked out at 222 nmol/m. In series [1] (person one, serum), the Pre-test biomarker level was determined as 82 nmol/m. In addition, in series [2] (person one, serum), the VAF worked out at 5.429.
Taken in the same sequence, the figures for `CC(C)[C@H](N)C(=O)O` [L-Valine] were 4.7e+10 nmol/mL, 322 nmol/mL, 12 nmol/mL and 8.75.
Consider `CC(C)C[C@H](N)C(=O)O` [Leucine], for which, in series [1] (setting [7]), the “Follow-up Nutrient Level” value amounted to 225 nmol/m. In addition, in series [1] (person three, serum), the “Actual Nutrient Value (ANV)” value turned out to be 85 nmol/m.
In the case of `[24Mg]` [Magnesium, Mg 24], in series [3] (upper tolerable limit), the UTL is given as 350 mg/day.
With `[Mn]` [Manganese, Mn 55], the UTL in series [3] (upper tolerable limit) is on record as 11 mg/day.
Turning to `O[C@H]1[C@H](O)[C@@H](O)[C@H](O)[C@@H](O)[C@H]1O` [Myo-Inositol], in series [1] (female, human, in vivo), the Post-test biomarker level was determined as 12.9 nmol/mL. Also, the “Follow-up Biomarker level” value in series [1] (setting [8]) stood at 47.5 nmol/mL. Also, the Pre-test biomarker level in series [1] (person two, serum) was determined as 7.4 nmol/mL. This molecule registered a VAF in series [2] (person two, serum) of 0.55.
As for `[76Se]` [Selenium, Se 76], the UTL in series [3] (upper tolerable limit) is 0.4 mg/day.
Consider `N[C@@H](CO)C(=O)O` [Serine], for which the “Follow-up Nutrient Level” value in series [1] (setting [7]) came out at 131 nmol/mL. For the same molecule, the “Actual Nutrient Value (ANV)” value in series [1] (person three, serum) worked out at 62 nmol/mL. For the same molecule, the UTL in series [3] (Table 20, person three) is recorded as 12000 mg/day.
As to `[Na]` [Sodium], in series [3] (upper tolerable limit), the UTL is recorded as 2,300 mg/day.
Consider `CC(C)[C@H](N)C(=O)O` [Valine], for which the “Follow-up Nutrient Level” value in series [1] (setting [7]) was determined as 332 nmol/mL. Moreover, in series [1] (person three, serum), the “Actual Nutrient Value (ANV)” value stood at 26 nmol/mL.
With `CC1=C(/C=C/C(C)=C/C=C/C(C)=C/CO)C(C)(C)CCC1` [Vitamin A (Retinol)], the UTL in series [3] (upper tolerable limit) is 10,000 IU/day.
For the molecule `Cc1cc2nc3c(=O)[nH]c(=O)nc-3n(C[C@H](O)[C@H](O)[C@H](O)CO)c2cc1C` [Vitamin B2], the “Follow-up Nutrient Level” value in series [1] (setting [7]) was 231 ng/mL. For the same molecule, the “Actual Nutrient Value (ANV)” value in series [1] (person three, serum) came to 5.5 ng/mL.
For `O=C1O[C@H]([C@@H](O)CO)C(O)=C1O` [Vitamin C (L-Ascorbic acid)], the UTL in series [3] (upper tolerable limit) is on record as 2000 mg/day.
For `Cc1c(C)c2c(c(C)c1O)CC[C@@](C)(CCC[C@H](C)CCC[C@H](C)CCCC(C)C)O2` [Vitamin E (alpha-tocopherol)], the UTL in series [3] (upper tolerable limit) is recorded as 1,100 IU/day.
On to `CC1=C(C/C=C(\C)CCC[C@H](C)CCC[C@H](C)CCCC(C)C)C(=O)c2ccccc2C1=O` [Vitamin K1], for which the “Follow-up Nutrient Level” value in series [1] (setting [7]) was 12.3 ng/mL. Also, the “Actual Nutrient Value (ANV)” value in series [1] (person three, serum) is 0.07 ng/mL. Further, the Post-test biomarker level in series [1] (person two, serum, after ATB) is 0.0017 µg/mL. Also, the “Follow-up Biomarker level” value in series [1] (setting [8]) is 0.0124 µg/mL. For the same molecule, in series [1] (person two, serum), the Pre-test biomarker level amounted to 8e-05 µg/mL. The molecule further yielded a VAF in series [2] (person two, serum) of 0.081.
On to `[Zn]` [Zinc, Zn 67], for which the UTL in series [3] (upper tolerable limit) is recorded as 40 mg/day.
Take Vitamin B12: the Post-test biomarker level in series [1] (person one, cells, after ATB, unit not given) was determined as 1.7; in series [1] (person one, serum, after ATB), 0.000205 µg/mL; in series [1] (person two, serum, after ATB) it was 0.000147 µg/mL. In addition, the “Follow-up Biomarker level” value came out at 10.3 in series [1] (person one, cells, after customized blend, unit not given); 0.00117 µg/mL in series [1] (setting [6]); 0.001122 µg/mL in series [1] (setting [8]). Besides, the Pre-test biomarker level in series [1] (person one, cells, unit not given) was 0.2; in series [1] (person one, serum), 0.000105 µg/mL; in series [1] (person two, serum), 9.4e-05 µg/mL. For the same molecule, the VAF in series [2] (person one, cells) is given as 3.75; in series [2] (person one, serum), 250; in series [2] (person two, serum) it was 132.5.
Vitamin K2 came in with a Post-test biomarker level in series [1] (person one, serum, after ATB) of 1.7e-05 µg/mL. The “Follow-up Biomarker level” value in series [1] (setting [6]) is 0.0001017 µg/mL. Also, the Pre-test biomarker level in series [1] (person one, serum) is 1e-05 µg/mL. Moreover, the VAF in series [2] (person one, serum) worked out at 0.0007.
